Assay results: patent publication US20210137950A1, “Pharmaceutical Composition for Treating Cerebral Infarction” (Kyoto University, priority 2018, published 2021)

Columns and labels:
CB-17 mice = test: Infarction volume after transient focal cerebral ischemia (distal MCAO); format: in vivo; conditions: KUS121 immediately before the ischemia, vehicle (5% Cremophor) 11.8±0.60%, p<0.05, mean±SE
Protocol: (§1) Adult male C57BL/6 (C57BL/6NJcl) and CB-17 (CB-17/lcr-+/+Jcl) mice (6-7 weeks old) were purchased from Shimizu Laboratory supplies and Clea Japan, respectively. Animals were allowed access to food and water ad libitum.
In CB-17 mice, distal middle cerebral artery occlusion (distal MCAO) was performed as previously described with minor modifications (Kasahara Y, Ihara M, Nakagomi T, et al. A highly reproducible model of cerebral ischemia/reperfusion with extended survival in CB-17 mice. Neuroscience Research, 2013 July; 76(3):163-8). In brief, general anesthesia was induced and maintained by inhalation of 4% and 1.5% isoflurane (Pfizer), respectively. Mice were placed in a lateral position, and a skin incision was made between the left eyeball and the left external auditory canal. The left salivary gland and a part of the temporalis muscle were resected to allow visualization of the middle cerebral artery (MCA) through the cranial bone. A burr hole was made in the cranial bone. […] During surgery, rectal temperature was monitored and controlled at 36.0-37.2° C. by a feedback-regulated heating pad.
(§2) Mice were deeply anesthetized and perfused transcardially with PBS and 4% PFA 24 hours after ischemia. […] The area of the ipsilateral hemisphere and the area of the infarct on each section were measured using NIH imageJ software. […]

C57BL/6 mice [1] = test: Accelerating rotarod test after transient focal cerebral ischemia (distal MCAO with hypoxia); format: in vivo; conditions: KUS121 immediately after occlusion (100 mg/kg intravenously and 50 mg/kg intraperitoneally), 24 hours after occlusion, vehicle (5% Cremophor) 134.5±18.4, p<0.05, mean±SE
Protocol: as §1
(§3) In C57BL/6 mice, distal MCAO with hypoxia was performed as previously described with some modifications (Doyle K P, Fathali N, Siddiqui M R, et al. Distal hypoxic stroke: a new mouse model of stroke with high throughput, low variability and a quantifiable functional deficit. Journal of Neuroscience Methods, 2012 May 30; 207(1):31-40). Mice were placed in a large chamber containing 10% oxygen and 90% nitrogen after the occlusion of the distal MCA by a nylon suture. After 30 minutes of hypoxia, mice were returned to normoxic condition with removal of the nylon suture. Sham surgery were identical to the stroke surgery, except for the occlusion of the distal MCA.
Twenty-four hours after ischemia, mice were placed on an accelerating rotarod apparatus, in which the speed was accelerated from 0 to 40 rpm over 4 minutes. The time for which mice can remain on the rotating cylinder was measured. Three trials were performed and the best latency to fall was used. […]

primary cortical neurons [2] = test: MAP2 immunocytochemistry after OGD; format: cell-based, rat; conditions: 100 μM KUS, vehicle (DMSO) 0.87±0.13%, p<0.05, mean±SE
Protocol: (§4) Cortical neuronal cultures were prepared from 17-day-old Sprague Dawley rat embryos (Shimizu Laboratory Supplies) using methods described earlier (Maki T, et al, Annals of Clinical and Translational Neurology, 2014 August; 1(8):519-33). Briefly, cortices were dissected and dissociated. Cells were plated on dishes coated with poly-D-lysine in Dulbecco's modified Eagle's medium (DMEM) containing 5% heat-inactivated fetal bovine serum and 1% penicillin/streptomycin at a density of 200,000-250,000 cells/cm^2. At 24-hour after seeding, the medium was changed to Neurobasal (NB) medium containing 0.5 mM glutamine, 1% penicillin/streptomycin and 2% B27 supplement. Cultured neurons were used for experiments 14 days after seeding.
(§5) The medium was replaced with DMEM with no glucose. Then, the cells were placed into the sealed Anaero container with an Anaero Pack (Mitsubishi Gas Chemical Company) for 1.5-2 hours. Following oxygen glucose deprivation, cells were switched to the normal medium and returned to a normoxic 5% CO2 incubator.
The cells were washed twice with phosphate buffered saline (PBS), followed by 4% paraformaldehyde (PFA) for 15 minutes. After being further washed twice with PBS, they were incubated with PBS/0.1% Tween (10 min) and blocked with 3% BSA/PBS (1 hour at room temperature). […]

primary cortical neurons [3] = test: Cell viability test (CCK-8) after oxygen-glucose deprivation (OGD); format: cell-based, rat; conditions: for neuronal viability after OGD: 2 hours OGD + 22 hours recovery, vehicle (DMSO) 18.1±1.9%, p<0.001, mean±SE
Protocol: as §4, §5
Cell viability was assessed by Cell Counting Kit-8 (CCK-8) assay (Dojindo Laboratories). The CCK-8 assay is based on the conversion of a water-soluble tetrazolium salt, 2-(2-methoxy-4-nitrophenyl)-3-(4-nitrophenyl)-5-(2,4-disulfophenyl)-2H-tetrazolium, monosodium salt (WST-8), to a water-soluble formazan dye upon reduction by dehydrogenases in the presence of an electron carrier. The cells were incubated with 10% CCK-8 solution for 1-2 hour at 37° C. Then the absorbance of the culture medium was measured with a microplate reader at a test wavelength of 450 nm and a reference wavelength of 630 nm.
To assess protective effects of KUS121 on neurons in ischemic conditions, cell viability tests were performed after oxygen-glucose deprivation (OGD) in both the presence and the absence of KUS121 (FIG. 1, top). OGD was performed in rat cortical primary neuronal cultures for 2 hours with subsequent recovery at 21% 02 and glucose-containing media for further 22 hours. Control neurons were kept at 21% 02 in glucose-containing media for 24 hours. […]

NeuN = test: Western blotting of NeuN in cerebral cortex after transient focal cerebral ischemia; format: in vivo; conditions: CB-17 mice, KUS121 before ischemia
Protocol: Cells were collected and lysed in RIPA buffer (20 mM HEPES-KOH pH 7.4, 150 mM NaCl, 2 mM EDTA, 1% Nonidet-P40, 1% sodium deoxycholate) containing 10% 2-mercaptoethanol (Nacalai tesque) and 1% protease inhibitor (Nacalai tesque). Dissected brain samples were homogenized in the RIPA buffer with 2-mercaptomethanol and protease inhibitor. Samples were sonicated and centrifuged at 4° C., 15,000 rpm for 15 minutes, and the supernatants were collected. Proteins (15-20 μg per lane) were loaded, and were separated by 5-20% SDS-PAGE and transferred to polyvinylidene fluoride membranes (Millipore). The following primary antibodies were used: β-actin (1:5000, Sigma Aldrich, A5441), CHOP (1:1000, Cell Signaling Technology, L63F7), NeuN (1:2000, Merck Millipore, ABN78), VCP (1:500, ABGENT, AP6920b). HRP-labeled secondary antibodies (Santa Cruz Biotechnology) were used for visualization by enhanced chemiluminescence (Nacalai tesque). […]
In CB-17 mice, distal middle cerebral artery occlusion (distal MCAO) was performed as previously described with minor modifications (Kasahara Y, Ihara M, Nakagomi T, et al. A highly reproducible model of cerebral ischemia/reperfusion with extended survival in CB-17 mice. Neuroscience Research, 2013 July; 76(3):163-8). […] During surgery, rectal temperature was monitored and controlled at 36.0-37.2° C. by a feedback-regulated heating pad. […]

C57BL/6 mice [4] = test: Infarction volume after transient focal cerebral ischemia (distal MCAO with hypoxia); format: in vivo; conditions: KUS121 immediately after occlusion (100 mg/kg intravenously and 50 mg/kg intraperitoneally), 24 hours after ischemia, vehicle (5% Cremophor) 8.8±0.63%, p<0.05, mean±SE
Protocol: as §1, §3
as §2, with “ischemia. The brains were extracted and post-fixed in 4% PFA for 48 hours. They were further cryoprotected in 20% sucrose until they sunk to the bottom of the vial.” for “ischemia.”

primary cortical neurons [5] = test: ATP assay (luciferase-based) after OGD; format: cell-based, rat
Protocol: as §4
The medium was replaced with DMEM with no glucose. Then, the cells were placed into the sealed Anaero container with an Anaero Pack (Mitsubishi Gas Chemical Company) for 1.5-2 hours. […]
ATP levels in cell lysates were measured with luciferase chemiluminescence-based ATP assay reagent for cells (Toyo Ink) in accordance with the manufacturer's protocol. […] After incubating for 5 minutes at room temperature, luminescence of an aliquot of the solution was measured in a luminometer.
Cellular ATP levels were measured by the luciferase-based assay after 1.5 hour OGD. […]

[6] = tested on: C/EBP-homologous protein (CHOP); test: Western blot of CHOP expression after tunicamycin treatment (ER stress); format: cell-based, rat; conditions: 0.25 μg/mL tunicamycin for 6 hours
Protocol: as §4
Cells were collected and lysed in RIPA buffer (20 mM HEPES-KOH pH 7.4, 150 mM NaCl, 2 mM EDTA, 1% Nonidet-P40, 1% sodium deoxycholate) containing 10% 2-mercaptoethanol (Nacalai tesque) and 1% protease inhibitor (Nacalai tesque). Dissected brain samples were homogenized in the RIPA buffer with 2-mercaptomethanol and protease inhibitor. Samples were sonicated and centrifuged at 4° C., 15,000 rpm for 15 minutes, and the supernatants were collected. Proteins (15-20 μg per lane) were loaded, and were separated by 5-20% SDS-PAGE and transferred to polyvinylidene fluoride membranes (Millipore). […]

Cc1cc(F)ccc1-c1ccc(N=Nc2cc(S(=O)(=O)[O-])c3ccccc3c2N)cn1.[Na+] [KUS121, 4-amino-3-[6-(4-fluoro-2-methylphenyl)pyridine-3-ylazo]naphthalene-1-sulfonic acid sodium salt]
infarction volumes (CB-17 mice): 5.74±1.64%
rotarod retention time (C57BL/6 mice [1]): 201.0 ± 21.8 s
MAP2-positive area (primary cortical neurons [2]): 2.64±0.41%
neuronal viability after OGD (primary cortical neurons [3]; 100 μM KUS throughout): 43.5±3.1%
neuronal viability after OGD (primary cortical neurons [3]; 200 μM KUS throughout): 42.4±3.7%
neuronal viability without OGD (primary cortical neurons [3]; without OGD): no effect
expression of NeuN in cerebral cortex (NeuN): preserved
infarction volumes (C57BL/6 mice [4]): 4.7±1.70%
ATP levels (primary cortical neurons [5]; 100 μM KUS, after 1.5 hour OGD, vehicle (DMSO) 14.3±1.1%, p<0.001, mean±SE): 28.0±2.3%
ATP levels without OGD (primary cortical neurons [5]; without OGD): no effect
expression of CHOP [6]: suppressed
